From PMC4899947 (Bioorganic & medicinal chemistry letters, 2016)

Columns and labels:
[1] = biological target: human mGlu4 (Homo sapiens, UniProt Q14833); experiment: Calcium mobilization mGlu4 PAM assay; type: cell-based
[2] = Plasma and brain samples from the oral HIC study; type: in vivo, rat; settings: rats
[3] = system: haloperidol-induced catalepsy; experiment: Reversal of haloperidol-induced catalepsy; type: in vivo, rat; settings: rats; for reversal of haloperidol-induced catalepsy (in words): p.o.
[4] = system: other mGlu receptors; experiment: Selectivity versus the other mGlu receptors

human mGlu4, sequence (Q14833 33-912): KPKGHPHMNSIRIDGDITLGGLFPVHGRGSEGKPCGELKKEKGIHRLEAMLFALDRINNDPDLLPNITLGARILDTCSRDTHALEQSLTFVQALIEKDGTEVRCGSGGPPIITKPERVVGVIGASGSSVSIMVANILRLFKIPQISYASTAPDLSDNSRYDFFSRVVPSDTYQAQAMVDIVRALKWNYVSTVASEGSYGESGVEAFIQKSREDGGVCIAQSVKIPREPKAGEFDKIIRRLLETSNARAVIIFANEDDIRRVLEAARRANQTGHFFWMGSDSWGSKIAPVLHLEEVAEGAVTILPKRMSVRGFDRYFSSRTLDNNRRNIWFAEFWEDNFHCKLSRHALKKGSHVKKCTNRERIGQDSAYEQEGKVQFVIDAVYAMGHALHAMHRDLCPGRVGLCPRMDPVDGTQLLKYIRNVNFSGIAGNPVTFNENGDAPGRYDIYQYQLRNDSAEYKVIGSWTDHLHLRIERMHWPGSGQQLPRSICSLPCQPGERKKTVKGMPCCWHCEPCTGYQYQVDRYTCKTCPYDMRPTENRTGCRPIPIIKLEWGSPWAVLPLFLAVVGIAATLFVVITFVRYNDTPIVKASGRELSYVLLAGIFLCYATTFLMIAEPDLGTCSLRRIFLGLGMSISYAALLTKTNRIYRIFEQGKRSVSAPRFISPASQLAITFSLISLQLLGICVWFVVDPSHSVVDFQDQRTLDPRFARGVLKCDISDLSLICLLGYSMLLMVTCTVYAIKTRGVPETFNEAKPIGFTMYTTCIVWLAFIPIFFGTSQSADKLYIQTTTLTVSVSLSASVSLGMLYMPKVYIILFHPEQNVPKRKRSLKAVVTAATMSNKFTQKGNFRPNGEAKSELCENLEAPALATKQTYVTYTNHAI

For `Nc1cccnc1C(=O)Nc1cccc(Cl)c1` [Compound 7], the “fold less potent than 6” value ([1]; mGlu4 PAM EC50 relative to 6) was ~ 7 fold.
In the case of `Nc1cccnc1C(=O)Nc1ccc(N2C(=O)c3ccccc3C2=O)c(Cl)c1` [Compound 17a, N-(3-chloro-4-(1,3-dioxoisoindolin-2-yl)phenyl)-3-aminopicolinamide], the “total brain level, fold above the rat mGlu4 PAM EC50” value [2] is reported as “greater than 2 fold”, the “mGlu4 PAM activity (in words)” value [1] is reported as “good PAM activity” and the “reversal of haloperidol-induced catalepsy at 1 mg/kg p.o.” value ([3]; 1 mg/kg p.o., haloperidol 1.5 mg/kg, side-by-side with 6) is reported as “as efficacious as 6”. For the same compound, the “reversal of haloperidol-induced catalepsy (in words)” value ([3]; haloperidol 1.5 mg/kg) was “robust efficacy” and the “selectivity versus the other mGlu receptors” value [4] was “excellent selectivity”.
For `Cc1cccc2c1C(=O)N(c1ccc(NC(=O)c3ncccc3N)cc1Cl)C2=O` [Compound 17d], the “mGlu4 PAM activity (in words)” value [1] was “good PAM activity”.
For `Nc1cccnc1C(=O)Nc1ccc(N2Cc3ccccc3C2=O)c(Cl)c1` [Compound 17e], the “mGlu4 PAM activity (in words)” value [1] was “good PAM activity”.
For `Nc1cccnc1C(=O)Nc1ccc(N2Cc3ccc(Cl)cc3C2=O)c(Cl)c1` [Compound 17g], the “mGlu4 PAM activity (in words)” value [1] was “devoid of PAM activity”.
In the case of `COc1ccc2c(c1)C(=O)N(c1ccc(NC(=O)c3ncccc3N)cc1Cl)C2` [Compound 17h], the “mGlu4 PAM activity (in words)” value [1] is reported as “good PAM activity”.
In the case of `CCc1cnc(Oc2ccc(NC(=O)c3ncccc3N)cc2Cl)nc1` [Compound 17t], the “total brain level, fold above the rat mGlu4 PAM EC50” value [2] is reported as “greater than 3.5 fold”, the “reversal of haloperidol-induced catalepsy at 3 mg/kg p.o.” value ([3]; 3 mg/kg p.o., comparable to 6 at 10 mg/kg p.o.) is reported as “robust reversal” and the “reversal of haloperidol-induced catalepsy (in words)” value ([3]; haloperidol 1.5 mg/kg) is reported as “more efficacious than 6”. For the same compound, the “selectivity versus the other mGlu receptors” value [4] was “excellent selectivity”.
For `CCc1cnc(Oc2ccc(NC(=O)c3ccncc3N)cc2Cl)nc1` [Compound 19], the “mGlu4 PAM activity (in words)” value [1] was “devoid of mGlu4 PAM activity”.
In the case of `CCc1cnc(Oc2ccc(NC(=O)c3nccnc3N)cc2Cl)nc1` [Compound 20], the “fold loss of potency relative to 17t” value ([1]; mGlu4 PAM EC50 relative to 17t) is reported as ~ 5 fold.
